From ChEMBL document CHEMBL3045319, “Synthesis, antitumor activity, and structureactivity relationship of some 4H-pyrano[3,2-h]quinoline and 7H-pyrimido[4,5:6,5]pyrano[3,2-h]quinoline derivatives” (Med Chem Res, 2013)
≈ marks a conversion by molar mass, not a printed value.

What was measured:
[1] = tested on: HepG2; test: Cytotoxicity against Homo sapiens (human) HepG2 cells assessed as cell viability at 1.56 ug/ml after 48 hr by MTT assay relative to control; type: functional; conditions: HepG2, 48 h, read-out: Activity
[2] = tested on: MCF7; test: Cytotoxicity against Homo sapiens (human) MCF7 cells assessed as cell viability at 6.25 ug/ml after 48 hr by MTT assay relative to control; type: functional; conditions: MCF7, 48 h, read-out: Activity
[3] = tested on: HepG2; test: Cytotoxicity against Homo sapiens (human) HepG2 cells assessed as cell viability at 50 ug/ml after 48 hr by MTT assay relative to control; type: functional; conditions: HepG2, 48 h, read-out: Activity
[4] = Cytotoxicity against Homo sapiens (human) HCT cells assessed as cell viability at 6.25 ug/ml after 48 hr by MTT assay relative to control; type: functional; conditions: read-out: Activity
[5] = tested on: HepG2; test: Cytotoxicity against Homo sapiens (human) HepG2 cells assessed as cell viability at 25 ug/ml after 48 hr by MTT assay relative to control; type: functional; conditions: HepG2, 48 h, read-out: Activity
[6] = tested on: MCF7; test: Cytotoxicity against Homo sapiens (human) MCF7 cells after 48 hr by MTT assay; type: functional, cell-based; conditions: MCF7, 48 h
[7] = Cytotoxicity against Homo sapiens (human) HCT cells assessed as cell viability at 25 ug/ml after 48 hr by MTT assay relative to control; type: functional; conditions: read-out: Activity
[8] = Cytotoxicity against Homo sapiens (human) HCT cells assessed as cell viability at 12.5 ug/ml after 48 hr by MTT assay relative to control; type: functional; conditions: read-out: Activity
[9] = tested on: HepG2; test: Cytotoxicity against Homo sapiens (human) HepG2 cells assessed as cell viability at 12.5 ug/ml after 48 hr by MTT assay relative to control; type: functional; conditions: HepG2, 48 h, read-out: Activity
[10] = tested on: MCF7; test: Cytotoxicity against Homo sapiens (human) MCF7 cells assessed as cell viability at 50 ug/ml after 48 hr by MTT assay relative to control; type: functional; conditions: MCF7, 48 h, read-out: Activity
[11] = tested on: HepG2; test: Cytotoxicity against Homo sapiens (human) HepG2 cells assessed as cell viability at 6.25 ug/ml after 48 hr by MTT assay relative to control; type: functional; conditions: HepG2, 48 h, read-out: Activity
[12] = Cytotoxicity against Homo sapiens (human) HCT cells assessed as cell viability at 50 ug/ml after 48 hr by MTT assay relative to control; type: functional; conditions: read-out: Activity
[13] = tested on: MCF7; test: Cytotoxicity against Homo sapiens (human) MCF7 cells assessed as cell viability at 1.56 ug/ml after 48 hr by MTT assay relative to control; type: functional; conditions: MCF7, 48 h, read-out: Activity
[14] = Cytotoxicity against Homo sapiens (human) HCT cells assessed as cell viability at 1.56 ug/ml after 48 hr by MTT assay relative to control; type: functional; conditions: read-out: Activity
[15] = Cytotoxicity against Homo sapiens (human) HCT cells assessed as cell viability at 3.125 ug/ml after 48 hr by MTT assay relative to control; type: functional; conditions: read-out: Activity
[16] = tested on: MCF7; test: Cytotoxicity against Homo sapiens (human) MCF7 cells assessed as cell viability at 12.5 ug/ml after 48 hr by MTT assay relative to control; type: functional; conditions: MCF7, 48 h, read-out: Activity
[17] = tested on: MCF7; test: Cytotoxicity against Homo sapiens (human) MCF7 cells assessed as cell viability at 25 ug/ml after 48 hr by MTT assay relative to control; type: functional; conditions: MCF7, 48 h, read-out: Activity
[18] = tested on: HepG2; test: Cytotoxicity against Homo sapiens (human) HepG2 cells after 48 hr by MTT assay; type: functional, cell-based; conditions: Homo sapiens, HepG2, 48 h; read-out: IC50
[19] = tested on: HepG2; test: Cytotoxicity against Homo sapiens (human) HepG2 cells assessed as cell viability at 3.125 ug/ml after 48 hr by MTT assay relative to control; type: functional; conditions: HepG2, 48 h, read-out: Activity
[20] = Cytotoxicity against Homo sapiens (human) HCT cells after 48 hr by MTT assay; type: functional, cell-based
[21] = tested on: MCF7; test: Cytotoxicity against Homo sapiens (human) MCF7 cells assessed as cell viability at 3.125 ug/ml after 48 hr by MTT assay relative to control; type: functional; conditions: MCF7, 48 h, read-out: Activity

CCO/C=N/C1=C(C#N)C(c2ccc(Cl)cc2)c2ccc3cccnc3c2O1 (centres undefined)
viability at 1.56 µg/mL [1]: 97.6% | viability at 6.25 µg/mL [2]: 81.4% | viability at 50 µg/mL [3]: 39.4% | viability at 6.25 µg/mL [4]: 73.3% | viability at 25 µg/mL [5]: 57.1% | IC50 [6]: 45.4 µg/mL (≈ 116 µM) | viability at 25 µg/mL [7]: 51.4% | viability at 12.5 µg/mL [8]: 67.1% | viability at 12.5 µg/mL [9]: 72.3% | viability at 50 µg/mL [10]: 43% | viability at 6.25 µg/mL [11]: 86.6% | viability at 50 µg/mL [12]: 23.9% | viability at 1.56 µg/mL [13]: 98.3% | viability at 1.56 µg/mL [14]: 93.4% | viability at 3.125 µg/mL [15]: 81.7% | viability at 12.5 µg/mL [16]: 74.2% | viability at 25 µg/mL [17]: 67.1% | IC50 [18]: 31.1 µg/mL (≈ 79.8 µM) | viability at 3.125 µg/mL [19]: 91% | IC50 [20]: 25.7 µg/mL (≈ 65.9 µM) | viability at 3.125 µg/mL [21]: 93%

CCO/C=N/C1=C(C#N)C(c2ccc(Cl)cc2)c2ccc3ccc(C)nc3c2O1 (centres undefined)
viability at 1.56 µg/mL [1]: 100% | viability at 6.25 µg/mL [2]: 76.6% | viability at 50 µg/mL [3]: 45.2% | viability at 6.25 µg/mL [4]: 35.3% | viability at 25 µg/mL [5]: 69% | IC50 [6]: 23.8 µg/mL (≈ 58.9 µM) | viability at 25 µg/mL [7]: 18.4% | viability at 12.5 µg/mL [8]: 26% | viability at 12.5 µg/mL [9]: 79.4% | viability at 50 µg/mL [10]: 37.5% | viability at 6.25 µg/mL [11]: 85.1% | viability at 50 µg/mL [12]: 15.2% | viability at 1.56 µg/mL [13]: 96.1% | viability at 1.56 µg/mL [14]: 75.5% | viability at 3.125 µg/mL [15]: 54.9% | viability at 12.5 µg/mL [16]: 63.4% | viability at 25 µg/mL [17]: 48.6% | IC50 [18]: 44.5 µg/mL (≈ 110 µM) | viability at 3.125 µg/mL [19]: 96.4% | IC50 [20]: 3.6 µg/mL (≈ 8.91 µM) | viability at 3.125 µg/mL [21]: 87.4%

CCO/C=N/C1=C(C#N)C(c2ccc(Br)cc2)c2ccc3ccc(C)nc3c2O1 (centres undefined)
viability at 1.56 µg/mL [1]: 100% | viability at 6.25 µg/mL [2]: 87.6% | viability at 50 µg/mL [3]: 34.6% | viability at 6.25 µg/mL [4]: 46.5% | viability at 25 µg/mL [5]: 62.9% | IC50 [6]: > 50 µg/mL | viability at 25 µg/mL [7]: 23.3% | viability at 12.5 µg/mL [8]: 34% | viability at 12.5 µg/mL [9]: 76.4% | viability at 50 µg/mL [10]: 56.6% | viability at 6.25 µg/mL [11]: 83.3% | viability at 50 µg/mL [12]: 19.8% | viability at 1.56 µg/mL [13]: 98.1% | viability at 1.56 µg/mL [14]: 81.9% | viability at 3.125 µg/mL [15]: 62.9% | viability at 12.5 µg/mL [16]: 79.2% | viability at 25 µg/mL [17]: 67.4% | IC50 [18]: 37.1 µg/mL (≈ 82.8 µM) | viability at 3.125 µg/mL [19]: 94.6% | IC50 [20]: 5.8 µg/mL (≈ 12.9 µM) | viability at 3.125 µg/mL [21]: 95.4%

CN(C)/C=N/C1=C(C#N)C(c2ccc(Cl)cc2)c2ccc3cccnc3c2O1 (centres undefined)
viability at 1.56 µg/mL [1]: 100% | viability at 6.25 µg/mL [2]: 83.5% | viability at 50 µg/mL [3]: 48.1% | viability at 6.25 µg/mL [4]: 88.1% | viability at 25 µg/mL [5]: 77.8% | IC50 [6]: 29.3 µg/mL (≈ 75.3 µM) | viability at 25 µg/mL [7]: 71.3% | viability at 12.5 µg/mL [8]: 77.7% | viability at 12.5 µg/mL [9]: 85.6% | viability at 50 µg/mL [10]: 37.7% | viability at 6.25 µg/mL [11]: 93% | viability at 50 µg/mL [12]: 49.5% | viability at 1.56 µg/mL [13]: 98.7% | viability at 1.56 µg/mL [14]: 100% | viability at 3.125 µg/mL [15]: 98.5% | viability at 12.5 µg/mL [16]: 75.6% | viability at 25 µg/mL [17]: 58% | IC50 [18]: 47.9 µg/mL (≈ 123 µM) | viability at 3.125 µg/mL [19]: 98.3% | IC50 [20]: 49.4 µg/mL (≈ 127 µM) | viability at 3.125 µg/mL [21]: 92%

Cc1ccc2ccc3c(c2n1)OC(/N=C/N(C)C)=C(C#N)C3c1ccc(Cl)cc1 (centres undefined)
viability at 1.56 µg/mL [1]: 100% | viability at 6.25 µg/mL [2]: 76.9% | viability at 50 µg/mL [3]: 68.2% | viability at 6.25 µg/mL [4]: 74.2% | viability at 25 µg/mL [5]: 81.5% | IC50 [6]: 24.4 µg/mL (≈ 60.6 µM) | viability at 25 µg/mL [7]: 53.5% | viability at 12.5 µg/mL [8]: 69.7% | viability at 12.5 µg/mL [9]: 94.7% | viability at 50 µg/mL [10]: 35% | viability at 6.25 µg/mL [11]: 97.8% | viability at 50 µg/mL [12]: 30.5% | viability at 1.56 µg/mL [13]: 97% | viability at 1.56 µg/mL [14]: 82% | viability at 3.125 µg/mL [15]: 78.7% | viability at 12.5 µg/mL [16]: 68.2% | viability at 25 µg/mL [17]: 49.6% | IC50 [18]: > 50 µg/mL | viability at 3.125 µg/mL [19]: 100% | IC50 [20]: 28.2 µg/mL (≈ 70 µM) | viability at 3.125 µg/mL [21]: 87.2%

CC[C@]1(O)C[C@@H]2CN(CCc3c([nH]c4ccccc34)[C@@](C(=O)OC)(c3cc4c(cc3OC)N(C)[C@H]3[C@@](O)(C(=O)OC)[C@H](OC(C)=O)[C@]5(CC)C=CCN6CC[C@]43[C@@H]65)C2)C1 [VINBLASTINE]
viability at 1.56 µg/mL [1]: 72.1% | viability at 6.25 µg/mL [2]: 48.8% | viability at 50 µg/mL [3]: 14.4% | viability at 6.25 µg/mL [4]: 38.1% | viability at 25 µg/mL [5]: 16.1% | viability at 25 µg/mL [7]: 21.7% | viability at 12.5 µg/mL [8]: 28.2% | viability at 12.5 µg/mL [9]: 24.2% | viability at 50 µg/mL [10]: 7.82% | viability at 6.25 µg/mL [11]: 45.1% | viability at 50 µg/mL [12]: 16.3% | viability at 1.56 µg/mL [13]: 76.2% | viability at 1.56 µg/mL [14]: 53.4% | viability at 3.125 µg/mL [15]: 47.5% | viability at 12.5 µg/mL [16]: 29.6% | viability at 25 µg/mL [17]: 15.2% | viability at 3.125 µg/mL [19]: 55% | IC50 [20]: 2.6 µg/mL (≈ 3.21 µM) | viability at 3.125 µg/mL [21]: 60.4%
